According to ChEMBL document CHEMBL1201862, “PubChem BioAssay data set” (2004):
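Assay format: 96-well plates, 48-hour exposure. GI50 is the concentration that inhibits growth by half.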 Calls of active or inactive are those of the source. Rule as the data show it: active = GI50 up to about 1.1 µM and inactive = higher.

What was measured:
Experiment in all cases: NCI tumour cell line growth inhibition, 48 h
[1] = system: Hs-578T
[2] = system: RPMI-8226
[3] = system: NCI-H522
[4] = system: UACC-257
[5] = system: PC-3
[6] = system: SK-OV-3
[7] = system: SN12C
[8] = system: SK-MEL-2
[9] = system: SK-MEL-5
[10] = system: M14
[11] = system: HCT-15
[12] = system: SF-539
[13] = system: NCI-H226
[14] = system: A549
[15] = system: HOP-92
[16] = system: MDA-MB-231
[17] = system: HL-60
[18] = system: K562
[19] = system: A498

Compound | GI50 [1] | GI50 [2] | GI50 [3] | GI50 [4] | GI50 [5] | GI50 [6] | GI50 [7] | GI50 [8] | GI50 [9] | GI50 [10] | GI50 [11] | GI50 [12] | GI50 [13] | GI50 [14] | GI50 [15] | GI50 [16] | GI50 [17] | GI50 [18] | GI50 [19]
Cn1c(=O)c2nc(SCc3ccccn3)[nH]c2n(C)c1=S | > 100 µM (inactive) | > 100 µM (inactive) | > 100 µM (inactive) | > 100 µM (inactive) | > 100 µM (inactive) | 27.7 µM (inactive) | 74.1 µM (inactive) | 52.8 µM (inactive) | > 100 µM (inactive) | > 100 µM (inactive) | > 100 µM | 34.1 µM (inactive) | 63.7 µM (inactive) | > 100 µM (inactive) | 39.2 µM (inactive) | 76.6 µM (inactive) | > 100 µM (inactive) | > 100 µM (inactive) | 23.3 µM (inactive)
CN1CCN(CC(=O)N2c3ccccc3Sc3cc4ccccc4cc32)CC1 | 11 µM (inactive) | 14.6 µM (inactive) | 15 µM (inactive) | 11.6 µM (inactive) | 14.3 µM (inactive) | 16.1 µM (inactive) | 12.1 µM (inactive) | 17.5 µM (inactive) | 17.5 µM (inactive) | 13.8 µM (inactive) | 16.7 µM | 15.6 µM (inactive) | 22.7 µM (inactive) | 15.3 µM (inactive) | 10.6 µM (inactive) | 14.6 µM (inactive) | 0.394 µM (active) | 15.9 µM (inactive) | 13.7 µM (inactive)
CC(=O)CC(C)(C)NC(=O)[C@@]1(O)CC[C@H]2[C@@H]3CCC4=CC(=O)CC[C@@H]4[C@H]3CC[C@@]21C | > 100 µM (inactive) | > 100 µM (inactive) | > 100 µM (inactive) | > 100 µM (inactive) | > 100 µM (inactive) | > 100 µM (inactive) | > 100 µM (inactive) | > 100 µM (inactive) | 72.8 µM (inactive) | > 100 µM (inactive) | > 100 µM | > 100 µM (inactive) | > 100 µM (inactive) | > 100 µM (inactive) | > 100 µM (inactive) | > 100 µM (inactive) | 70.3 µM (inactive) | > 100 µM (inactive) | > 100 µM (inactive)
O=NN(Cc1ccc(Cl)cc1)C(C(=O)O)c1ccccc1 (stereo not given) | > 100 µM (inactive) | > 100 µM (inactive) | > 100 µM (inactive) | 47.2 µM (inactive) | > 100 µM (inactive) | > 100 µM (inactive) | > 100 µM (inactive) | > 100 µM (inactive) | > 100 µM (inactive) | > 100 µM (inactive) | > 100 µM | > 100 µM (inactive) | > 100 µM (inactive) | > 100 µM (inactive) | > 100 µM (inactive) | > 100 µM (inactive) | > 100 µM (inactive) | > 100 µM (inactive) | > 100 µM (inactive)
N/C(=N/c1ccc(O)cc1)S(=O)O | > 100 µM (inactive) | > 100 µM (inactive) | > 100 µM (inactive) | > 100 µM (inactive) | > 100 µM (inactive) | 41.5 µM (inactive) | > 100 µM (inactive) | > 100 µM (inactive) | > 100 µM (inactive) | > 100 µM (inactive) | > 100 µM | > 100 µM (inactive) | 37.2 µM (inactive) | > 100 µM (inactive) | > 100 µM (inactive) | > 100 µM (inactive) | > 100 µM (inactive) | > 100 µM (inactive) | > 100 µM (inactive)
Clc1ccc(-c2cc(-c3nc4ccccc4[nH]3)no2)cc1 | 29.6 µM (inactive) | 24.3 µM (inactive) | 19.2 µM (inactive) | 18.8 µM (inactive) | 23.3 µM (inactive) | 18.6 µM (inactive) | 18.6 µM (inactive) | 18.7 µM (inactive) | 17.7 µM (inactive) | 18.4 µM (inactive) | 19.6 µM | 23.9 µM (inactive) | 27.4 µM (inactive) | 19.1 µM (inactive) | 33.7 µM (inactive) | 18.6 µM (inactive) | 7.4 µM (inactive) | 19.8 µM (inactive) | 18.9 µM (inactive)
O=C(O)/C=C/c1ccc(OS(=O)(=O)O)cc1 | > 100 µM (inactive) | > 100 µM (inactive) | > 100 µM (inactive) | > 100 µM (inactive) | > 100 µM (inactive) | > 100 µM (inactive) | > 100 µM (inactive) | > 100 µM (inactive) | > 100 µM (inactive) | > 100 µM (inactive) | > 100 µM | > 100 µM (inactive) | > 100 µM (inactive) | > 100 µM (inactive) | > 100 µM (inactive) | > 100 µM (inactive) | > 100 µM (inactive) | > 100 µM (inactive) | > 100 µM (inactive)
O=[N+]([O-])O [NITRIC ACID] | > 100 µM (inactive) | > 100 µM (inactive) | > 100 µM (inactive) | > 100 µM (inactive) | > 100 µM (inactive) | > 100 µM (inactive) | > 100 µM (inactive) | > 100 µM (inactive) | > 100 µM (inactive) | > 100 µM (inactive) | > 100 µM | > 100 µM (inactive) | > 100 µM (inactive) | > 100 µM (inactive) | > 100 µM (inactive) | > 100 µM (inactive) | > 100 µM (inactive) | > 100 µM (inactive) | > 100 µM (inactive)
CC(C)(C)c1cc(C(C)(C)C)c2sc(=S)oc2c1O | 4.43 µM (inactive) | 7.33 µM (inactive) | 5.9 µM (inactive) | 14.3 µM (inactive) | 4.29 µM (inactive) | 17.9 µM (inactive) | 6.14 µM (inactive) | 8.79 µM (inactive) | 8.17 µM (inactive) | 10.4 µM (inactive) | 4.98 µM | 2.39 µM (inactive) | 15.2 µM (inactive) | 6.55 µM (inactive) | 14.1 µM (inactive) | 13.6 µM (inactive) | 7.45 µM (inactive) | 15 µM (inactive) | 12.9 µM (inactive)
C1=N\c2ccc(cc2)-c2ccc(cc2)/N=C\c2ccc(cc2)OCc2cccc(n2)COc2ccc/1cc2 | 18.2 µM (inactive) | > 100 µM (inactive) | 34.5 µM (inactive) | > 100 µM (inactive) | > 100 µM (inactive) | 61.2 µM (inactive) | > 100 µM (inactive) | > 100 µM (inactive) | > 100 µM (inactive) | > 100 µM (inactive) | > 100 µM | > 100 µM (inactive) | 37 µM (inactive) | > 100 µM (inactive) | > 100 µM (inactive) | > 100 µM (inactive) | > 100 µM (inactive) | > 100 µM (inactive) | > 100 µM (inactive)
CC(=O)[C@]1(O)Cc2c(O)c3c(c(O)c2C(OC2OC(C)C(O)C(O)C2F)C1)C(=O)c1ccccc1C3=O (stereo not given in full) | 0.33 µM (active) | < 0.0299 µM (active) | 0.316 µM (active) | 0.225 µM (active) | 0.316 µM (active) | 0.135 µM (active) | 0.0247 µM (active) | 0.828 µM (active) | 0.0516 µM (active) | 0.0951 µM (active) | 0.0516 µM | < 0.0402 µM (active) | 0.0265 µM (active) | 0.019 µM (active) | 0.055 µM (active) | 0.115 µM (active) | < 0.01 µM (active) | 0.083 µM (active) | 0.0581 µM (active)
NS(=O)(=O)c1ccc(/N=N/c2c(O)c(C(=O)O)cc3ccccc23)cc1 | > 100 µM (inactive) | > 100 µM (inactive) | > 76.7 µM (inactive) | > 100 µM (inactive) | > 100 µM (inactive) | > 100 µM (inactive) | > 100 µM (inactive) | > 100 µM (inactive) | 53.8 µM (inactive) | > 75.9 µM (inactive) | > 100 µM | > 100 µM (inactive) | > 100 µM (inactive) | > 100 µM (inactive) | > 100 µM (inactive) | > 100 µM (inactive) | > 100 µM (inactive) | > 94.4 µM (inactive) | > 100 µM (inactive)
CNC(=O)CCCNC(=O)CCCC(=O)OC | > 100 µM (inactive) | > 100 µM (inactive) | > 100 µM (inactive) | > 100 µM (inactive) | > 100 µM (inactive) | > 100 µM (inactive) | > 100 µM (inactive) | > 100 µM (inactive) | > 100 µM (inactive) | > 100 µM (inactive) | > 100 µM | > 100 µM (inactive) | > 100 µM (inactive) | > 100 µM (inactive) | > 100 µM (inactive) | > 100 µM (inactive) | > 100 µM (inactive) | > 100 µM (inactive) | > 100 µM (inactive)
COc1cccc(/C=N/n2c(Cc3ccc(Cl)cc3)n[nH]c2=O)c1 | 23.4 µM (inactive) | > 77.6 µM (inactive) | 14.7 µM (inactive) | > 100 µM (inactive) | 56.5 µM (inactive) | 27.7 µM (inactive) | 24.3 µM (inactive) | 32.7 µM (inactive) | > 100 µM (inactive) | > 100 µM (inactive) | 99.3 µM | 15.8 µM (inactive) | > 28.2 µM (inactive) | 58.6 µM (inactive) | 23.1 µM (inactive) | 19.7 µM (inactive) | > 100 µM (inactive) | > 100 µM (inactive) | 59 µM (inactive)
C[n+]1cccc(/C=C/c2ccc3cccc(O)c3n2)c1 | 65.5 µM (inactive) | > 100 µM (inactive) | 24.8 µM (inactive) | > 100 µM (inactive) | > 100 µM (inactive) | > 100 µM (inactive) | 32.1 µM (inactive) | > 100 µM (inactive) | 37.1 µM (inactive) | > 100 µM (inactive) | > 100 µM | 88.1 µM (inactive) | > 100 µM (inactive) | 39.9 µM (inactive) | > 100 µM (inactive) | > 100 µM (inactive) | 28.1 µM (inactive) | 50.9 µM (inactive) | > 100 µM (inactive)
